Values quoted from earlier work, collected in patent US11260068B2, “Long-circulating liposome modified with c(RGD-ACP-K)” (BEIJING GREATSUN BIO-PHARM. TECH. CO., LTD, priority 2017, dated 2022).
“Also recorded” adds a separate entry of the source. Starred links: 1 amine or outer side, 2 acyl side, 3 side chain; linkers in the order of their positions; H or OH if unused. Non-standard residues stand in square brackets, D forms with d. Residues, ends and D or L forms follow the SMILES beside them. X1 = O=C(C1CCC(N[*:1])C1)[*:2]

Molecular target: T1, integrin αvβ3 on the surface of U87MG cells (Homo sapiens, UniProt P05106+P06756)
T1 construct: U87MG glioblastoma cells expressing integrin αvβ3; endogenous in cells; host or cells: U87MG glioblastoma cells
Conditions: reference c(RGDyK)

T1 sequence (P06756 31-889 limits assumed): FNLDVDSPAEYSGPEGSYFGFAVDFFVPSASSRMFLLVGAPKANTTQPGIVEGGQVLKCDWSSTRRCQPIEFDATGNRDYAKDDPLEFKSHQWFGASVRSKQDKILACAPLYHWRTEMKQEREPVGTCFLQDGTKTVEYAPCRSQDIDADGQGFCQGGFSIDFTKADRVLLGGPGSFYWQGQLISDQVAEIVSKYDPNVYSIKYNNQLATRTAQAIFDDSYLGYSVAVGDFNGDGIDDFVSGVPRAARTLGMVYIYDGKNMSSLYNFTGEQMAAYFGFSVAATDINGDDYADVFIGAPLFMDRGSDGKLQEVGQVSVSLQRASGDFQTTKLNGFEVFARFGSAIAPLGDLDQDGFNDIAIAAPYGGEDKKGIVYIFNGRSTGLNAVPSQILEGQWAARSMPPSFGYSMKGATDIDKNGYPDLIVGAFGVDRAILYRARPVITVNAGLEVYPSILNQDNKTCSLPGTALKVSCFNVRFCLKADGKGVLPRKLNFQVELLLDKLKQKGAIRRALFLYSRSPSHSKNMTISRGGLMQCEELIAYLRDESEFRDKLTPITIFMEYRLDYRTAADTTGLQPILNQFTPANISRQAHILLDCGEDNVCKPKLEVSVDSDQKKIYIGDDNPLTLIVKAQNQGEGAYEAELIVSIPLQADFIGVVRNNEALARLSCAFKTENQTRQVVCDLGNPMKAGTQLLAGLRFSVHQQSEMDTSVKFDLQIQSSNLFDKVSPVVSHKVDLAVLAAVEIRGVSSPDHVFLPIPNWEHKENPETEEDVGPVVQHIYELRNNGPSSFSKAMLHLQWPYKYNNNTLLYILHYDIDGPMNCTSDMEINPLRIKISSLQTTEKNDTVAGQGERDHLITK
T1 sequence (P06756 891-1048 partner limits assumed): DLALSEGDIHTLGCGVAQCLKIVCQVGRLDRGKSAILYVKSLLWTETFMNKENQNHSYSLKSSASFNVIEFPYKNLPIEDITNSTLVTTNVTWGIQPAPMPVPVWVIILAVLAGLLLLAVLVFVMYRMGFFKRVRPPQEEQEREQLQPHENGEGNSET
T1 sequence (P05106 27-788): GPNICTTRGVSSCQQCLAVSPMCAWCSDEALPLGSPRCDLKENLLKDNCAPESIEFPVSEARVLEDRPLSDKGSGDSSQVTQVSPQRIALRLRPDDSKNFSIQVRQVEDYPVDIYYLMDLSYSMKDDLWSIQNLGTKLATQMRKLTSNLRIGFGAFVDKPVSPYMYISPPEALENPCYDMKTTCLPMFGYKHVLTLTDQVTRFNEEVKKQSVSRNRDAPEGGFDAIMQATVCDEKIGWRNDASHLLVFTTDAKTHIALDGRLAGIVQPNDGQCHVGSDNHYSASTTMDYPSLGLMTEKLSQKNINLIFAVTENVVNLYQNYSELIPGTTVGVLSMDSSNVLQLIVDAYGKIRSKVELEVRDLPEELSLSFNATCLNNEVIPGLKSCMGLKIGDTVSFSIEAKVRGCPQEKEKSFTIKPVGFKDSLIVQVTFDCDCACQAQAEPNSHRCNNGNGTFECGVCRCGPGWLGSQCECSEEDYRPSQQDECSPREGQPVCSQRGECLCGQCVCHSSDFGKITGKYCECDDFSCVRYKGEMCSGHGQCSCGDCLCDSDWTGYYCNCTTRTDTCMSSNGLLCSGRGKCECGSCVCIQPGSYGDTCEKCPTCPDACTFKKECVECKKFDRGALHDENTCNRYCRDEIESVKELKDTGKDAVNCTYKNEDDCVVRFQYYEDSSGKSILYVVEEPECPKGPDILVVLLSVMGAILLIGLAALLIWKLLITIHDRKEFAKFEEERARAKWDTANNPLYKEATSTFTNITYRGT

| Molecule | binding to integrin αvβ3 on the surface of U87MG cells |
| --- | --- |
| N=C(N)NCCC[C@@H]1NC(=O)[C@H](CCCCN)NC(=O)C2CCC(C2)NC(=O)[C@H](CC(=O)O)NC(=O)CNC1=O (stereo partly drawn) [c(RGD-ACP-K), cyclo[RGD-(1S,3R)-3-aminocyclopentane-1-carboxylic acid]] (cyclo(RGD[X1]K)) | superior to that of the cyclic peptide c(RGDyK); also recorded: significantly higher than that of c(RGD-ACH-K) |
| cyclic [c(RGD-ACH-K), cyclic [RGD-(1S,3R)-3-aminocyclohexanecarboxylic acid]] | superior to that of the cyclic peptide c(RGDyK) |
